Reference: US10106538B2, “Inhibitors of protein kinases” (PRINCETON DRUG DISCOVERY INC, priority 2015, dated 2018)

What was measured:
Experiment in all cases: Off-chip Mobility Shift Assay (MSA) kinase inhibition
Type in all cases: biochemical
MST2 = molecular target: T1, MST2 (Homo sapiens, UniProt Q13188)
T1 construct: purchased Carna Biosciences
T1 sequence (Q13188 1-491): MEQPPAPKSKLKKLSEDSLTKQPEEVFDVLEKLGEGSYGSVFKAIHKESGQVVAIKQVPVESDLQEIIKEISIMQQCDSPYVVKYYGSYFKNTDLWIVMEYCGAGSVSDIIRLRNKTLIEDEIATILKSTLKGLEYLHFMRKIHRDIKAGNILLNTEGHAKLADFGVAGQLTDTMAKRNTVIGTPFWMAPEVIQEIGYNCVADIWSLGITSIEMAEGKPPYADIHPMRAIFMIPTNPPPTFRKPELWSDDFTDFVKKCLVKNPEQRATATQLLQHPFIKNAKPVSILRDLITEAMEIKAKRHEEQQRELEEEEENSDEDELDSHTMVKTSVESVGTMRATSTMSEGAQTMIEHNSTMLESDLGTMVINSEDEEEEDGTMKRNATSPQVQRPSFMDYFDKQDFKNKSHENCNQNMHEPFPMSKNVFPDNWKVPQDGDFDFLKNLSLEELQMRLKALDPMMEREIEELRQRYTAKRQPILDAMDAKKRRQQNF
Experimental: (§1) Off-chip Mobility Shift Assay (MSA) by Cama Biosciences, Inc (Natick, Mass.) a used for measuring the kinase activity and inhibition. • 1) The 5 μL of x4 compound solution, 5 μL of x4 Substrate/ATP/Metal solution, and 10 μL of x2 kinase solution were prepared with assay buffer (20 mM HEPES, 0.01% Triton X100, 2 mM DTT, pH 7.5) and mixed and incubated in a well of polypropylene 384 well microplate for 1 or 5 hour(s)* at room temperature. (*; depending on kinase) • 2) 70 μL of Termination Buffer (QuickScout Screening Assist A; Cama Biosciences) was added to the welt • 3) The reaction mixture was applied to LabChip system (Perkin Elmer), and the product and substrate peptide peaks were separated and quantitated. • 4) The kinase reaction was evaluated by the product ratio calculated from peak heights of product (P) and substrate (S) peptides (P/(P+S)). • 5) The reaction conditions were followed according to assay protocols of Ca n Biosciences, Inc (BMA 3F, 1-5-5 Minatojima-Minamimachi, Chuo-ku, Kobe 650-0047, Japan; www.carnabio.com). • 6 Data analysis: The readout value of reaction control (complete reaction mixture) was set as a 0% inhibition, and the readout value of background (Enzyme (−)) was set as a 100% inhibition, then the percent inhibition of each test solution was calculated, […]

BLK = molecular target: T2, BLK (Homo sapiens, UniProt P51451)
T2 construct: purchased Carna Biosciences
Experimental: as §1

DDR1 = molecular target: T3, DDR1 (Homo sapiens, UniProt Q08345)
T3 construct: purchased Carna Biosciences
Experimental: as §1

PKD3 = molecular target: T4, PKD3 (Homo sapiens, UniProt O94806); conditions: inhibitor concentration 1 μM
T4 construct: purchased Carna Biosciences
Experimental: as §1

MAP2K3 = molecular target: T5, MAP2K3 (Homo sapiens, UniProt P46734); conditions: inhibitor concentration 1 μM
T5 construct: purchased Carna Biosciences
Experimental: as §1

RET(G691S) = molecular target: T6, RET(G691S) (Homo sapiens, UniProt P07949, G691S)
T6 construct: purchased Carna Biosciences
Experimental: as §1

DDR2 = molecular target: T7, DDR2 (Homo sapiens, UniProt Q16832)
T7 construct: purchased Carna Biosciences
T7 sequence (Q16832 22-855): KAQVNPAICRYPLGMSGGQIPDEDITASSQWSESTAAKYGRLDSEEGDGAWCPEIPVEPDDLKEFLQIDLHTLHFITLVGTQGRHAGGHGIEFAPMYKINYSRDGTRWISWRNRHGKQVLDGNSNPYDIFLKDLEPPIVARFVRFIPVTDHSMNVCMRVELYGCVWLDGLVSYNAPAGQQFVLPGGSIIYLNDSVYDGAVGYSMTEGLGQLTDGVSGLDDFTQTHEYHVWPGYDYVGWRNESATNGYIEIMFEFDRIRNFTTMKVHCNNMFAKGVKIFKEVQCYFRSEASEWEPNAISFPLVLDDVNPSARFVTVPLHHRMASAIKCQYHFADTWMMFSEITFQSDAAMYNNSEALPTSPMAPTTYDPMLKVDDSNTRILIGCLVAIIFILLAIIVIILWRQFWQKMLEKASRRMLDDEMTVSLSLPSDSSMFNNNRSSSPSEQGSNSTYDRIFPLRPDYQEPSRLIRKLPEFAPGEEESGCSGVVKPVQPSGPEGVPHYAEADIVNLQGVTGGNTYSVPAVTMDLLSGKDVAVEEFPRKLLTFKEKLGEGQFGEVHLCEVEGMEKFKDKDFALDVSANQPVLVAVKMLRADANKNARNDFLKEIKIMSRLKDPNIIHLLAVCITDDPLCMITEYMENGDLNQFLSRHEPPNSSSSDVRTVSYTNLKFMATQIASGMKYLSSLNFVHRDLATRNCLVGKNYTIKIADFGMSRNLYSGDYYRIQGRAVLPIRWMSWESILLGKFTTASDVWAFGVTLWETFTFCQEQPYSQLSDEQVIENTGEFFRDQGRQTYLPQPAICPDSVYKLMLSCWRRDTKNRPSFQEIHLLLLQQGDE
Experimental: as §1

MAP2K4 = molecular target: T8, MAP2K4 (Homo sapiens, UniProt P45985); conditions: inhibitor concentration 1 μM
T8 construct: purchased Carna Biosciences
Experimental: as §1

FYN(isoform b) = molecular target: T9, FYN(isoform b) (Homo sapiens, UniProt P06241)
T9 construct: purchased Carna Biosciences
Experimental: as §1

ROCK2 = molecular target: T10, ROCK2 (Homo sapiens, UniProt O75116); conditions: inhibitor concentration 1 μM
T10 construct: purchased Carna Biosciences
Experimental: as §1

KIT(D816Y) = molecular target: T11, KIT(D816Y) (Homo sapiens, UniProt P10721, D816Y); conditions: inhibitor concentration 1 μM
T11 construct: purchased Carna Biosciences
Experimental: as §1

YES(T348I) = molecular target: T12, YES(T348I) (Homo sapiens, UniProt P07947, T348I); conditions: inhibitor concentration 1 μM
T12 construct: purchased Carna Biosciences
Experimental: as §1

PKD2 = molecular target: T13, PKD2 (Homo sapiens, UniProt Q9BZL6); conditions: inhibitor concentration 1 μM
T13 construct: purchased Carna Biosciences
Experimental: as §1

RET(M918T) = molecular target: T14, RET(M918T) (Homo sapiens, UniProt P07949, M918T)
T14 construct: purchased Carna Biosciences
Experimental: as §1

[1] = inhibitor concentration 0.01 μM

T3 sequence (Q08345 19-913): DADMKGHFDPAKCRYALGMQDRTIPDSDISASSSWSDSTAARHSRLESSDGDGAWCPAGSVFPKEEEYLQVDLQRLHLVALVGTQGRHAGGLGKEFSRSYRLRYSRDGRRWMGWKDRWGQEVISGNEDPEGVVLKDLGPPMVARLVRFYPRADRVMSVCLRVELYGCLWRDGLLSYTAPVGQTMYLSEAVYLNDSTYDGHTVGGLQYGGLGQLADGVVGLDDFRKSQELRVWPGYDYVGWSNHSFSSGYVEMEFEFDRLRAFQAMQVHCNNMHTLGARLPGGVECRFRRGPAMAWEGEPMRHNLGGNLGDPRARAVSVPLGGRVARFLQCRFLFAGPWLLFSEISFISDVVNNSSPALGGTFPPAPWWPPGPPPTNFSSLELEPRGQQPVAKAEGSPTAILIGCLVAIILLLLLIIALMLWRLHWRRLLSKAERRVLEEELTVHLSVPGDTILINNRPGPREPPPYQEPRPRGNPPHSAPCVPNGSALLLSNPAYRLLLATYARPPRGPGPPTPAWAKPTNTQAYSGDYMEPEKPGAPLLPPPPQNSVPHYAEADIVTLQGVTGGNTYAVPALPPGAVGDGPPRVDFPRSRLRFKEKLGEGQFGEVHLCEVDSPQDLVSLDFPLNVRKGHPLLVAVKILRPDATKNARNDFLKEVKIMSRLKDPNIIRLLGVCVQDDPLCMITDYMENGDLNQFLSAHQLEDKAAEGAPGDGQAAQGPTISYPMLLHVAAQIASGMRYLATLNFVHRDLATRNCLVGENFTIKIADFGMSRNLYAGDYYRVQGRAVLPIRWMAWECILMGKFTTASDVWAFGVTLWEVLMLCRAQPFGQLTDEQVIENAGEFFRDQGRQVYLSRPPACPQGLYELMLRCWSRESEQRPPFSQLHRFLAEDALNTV
T9 sequence (P06241 1-534 isoform P06241-2): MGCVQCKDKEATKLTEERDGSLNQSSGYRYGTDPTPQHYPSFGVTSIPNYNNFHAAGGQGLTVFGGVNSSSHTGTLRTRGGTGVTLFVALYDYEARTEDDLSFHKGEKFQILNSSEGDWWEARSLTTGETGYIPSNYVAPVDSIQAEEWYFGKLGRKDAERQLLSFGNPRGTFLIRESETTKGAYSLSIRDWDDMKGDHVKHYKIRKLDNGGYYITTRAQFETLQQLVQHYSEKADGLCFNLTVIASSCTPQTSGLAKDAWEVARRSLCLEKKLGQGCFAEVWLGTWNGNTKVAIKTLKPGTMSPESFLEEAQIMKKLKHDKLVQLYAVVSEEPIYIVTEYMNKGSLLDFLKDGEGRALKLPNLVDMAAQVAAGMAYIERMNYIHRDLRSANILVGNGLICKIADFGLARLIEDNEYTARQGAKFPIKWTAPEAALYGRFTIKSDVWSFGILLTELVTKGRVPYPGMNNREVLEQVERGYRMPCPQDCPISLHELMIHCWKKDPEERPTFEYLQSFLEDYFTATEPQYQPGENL
T14 sequence (P07949 29-1114 M918T): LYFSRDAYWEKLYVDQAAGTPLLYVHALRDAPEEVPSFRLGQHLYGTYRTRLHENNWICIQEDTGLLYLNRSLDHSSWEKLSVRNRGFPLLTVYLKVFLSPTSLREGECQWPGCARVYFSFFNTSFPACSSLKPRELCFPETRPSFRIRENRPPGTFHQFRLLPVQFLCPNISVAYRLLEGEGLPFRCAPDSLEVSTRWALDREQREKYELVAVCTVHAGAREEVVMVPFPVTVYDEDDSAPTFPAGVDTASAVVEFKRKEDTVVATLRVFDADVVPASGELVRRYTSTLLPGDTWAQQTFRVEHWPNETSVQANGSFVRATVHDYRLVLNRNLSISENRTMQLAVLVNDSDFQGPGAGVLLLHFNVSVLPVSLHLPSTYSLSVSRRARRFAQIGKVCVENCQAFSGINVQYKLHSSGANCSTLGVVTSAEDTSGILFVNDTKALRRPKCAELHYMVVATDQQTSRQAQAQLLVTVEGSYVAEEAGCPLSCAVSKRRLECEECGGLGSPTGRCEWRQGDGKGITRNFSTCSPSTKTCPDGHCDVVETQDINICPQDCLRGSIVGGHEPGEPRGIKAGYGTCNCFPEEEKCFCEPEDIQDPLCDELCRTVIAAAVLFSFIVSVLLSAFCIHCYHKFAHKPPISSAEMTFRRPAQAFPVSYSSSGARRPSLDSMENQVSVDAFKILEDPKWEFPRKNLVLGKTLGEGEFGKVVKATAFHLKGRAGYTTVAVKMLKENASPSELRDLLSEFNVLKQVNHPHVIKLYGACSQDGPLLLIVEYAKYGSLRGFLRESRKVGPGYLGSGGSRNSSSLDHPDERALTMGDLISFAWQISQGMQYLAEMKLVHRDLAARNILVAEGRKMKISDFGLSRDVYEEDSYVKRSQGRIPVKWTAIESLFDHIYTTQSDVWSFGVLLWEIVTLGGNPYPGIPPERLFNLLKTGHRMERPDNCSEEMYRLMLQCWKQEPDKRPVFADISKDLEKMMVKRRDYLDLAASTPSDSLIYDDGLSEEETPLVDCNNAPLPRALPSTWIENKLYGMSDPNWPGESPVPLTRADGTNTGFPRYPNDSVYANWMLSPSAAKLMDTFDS
T2 sequence (P51451 whole entry): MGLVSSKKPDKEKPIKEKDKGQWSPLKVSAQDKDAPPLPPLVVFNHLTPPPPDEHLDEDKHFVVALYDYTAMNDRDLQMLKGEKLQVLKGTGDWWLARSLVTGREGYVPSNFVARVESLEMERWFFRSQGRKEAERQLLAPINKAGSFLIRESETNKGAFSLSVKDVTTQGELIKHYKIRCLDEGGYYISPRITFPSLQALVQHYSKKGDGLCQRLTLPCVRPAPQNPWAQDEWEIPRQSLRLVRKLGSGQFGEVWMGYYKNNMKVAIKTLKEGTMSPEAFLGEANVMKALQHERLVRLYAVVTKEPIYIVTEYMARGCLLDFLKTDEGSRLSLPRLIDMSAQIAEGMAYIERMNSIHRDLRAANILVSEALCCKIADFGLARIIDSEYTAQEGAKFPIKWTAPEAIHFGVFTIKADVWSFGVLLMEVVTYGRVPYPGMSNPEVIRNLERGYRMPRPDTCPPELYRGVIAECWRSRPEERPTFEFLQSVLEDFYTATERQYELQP
T6 sequence (P07949 29-1114 G691S): as the sequence (P07949 29-1114 M918T) above, with G663S, T890M counted along it
T5 sequence (P46734 whole entry): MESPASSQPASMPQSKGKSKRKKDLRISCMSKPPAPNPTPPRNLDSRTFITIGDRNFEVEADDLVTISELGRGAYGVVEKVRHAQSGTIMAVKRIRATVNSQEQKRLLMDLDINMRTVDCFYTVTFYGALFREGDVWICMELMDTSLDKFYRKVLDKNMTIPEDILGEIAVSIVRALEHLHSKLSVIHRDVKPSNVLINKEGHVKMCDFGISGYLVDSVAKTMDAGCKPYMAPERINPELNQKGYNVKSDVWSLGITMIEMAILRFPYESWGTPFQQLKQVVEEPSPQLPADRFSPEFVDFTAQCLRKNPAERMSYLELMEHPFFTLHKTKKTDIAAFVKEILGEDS
T10 sequence (O75116 whole entry): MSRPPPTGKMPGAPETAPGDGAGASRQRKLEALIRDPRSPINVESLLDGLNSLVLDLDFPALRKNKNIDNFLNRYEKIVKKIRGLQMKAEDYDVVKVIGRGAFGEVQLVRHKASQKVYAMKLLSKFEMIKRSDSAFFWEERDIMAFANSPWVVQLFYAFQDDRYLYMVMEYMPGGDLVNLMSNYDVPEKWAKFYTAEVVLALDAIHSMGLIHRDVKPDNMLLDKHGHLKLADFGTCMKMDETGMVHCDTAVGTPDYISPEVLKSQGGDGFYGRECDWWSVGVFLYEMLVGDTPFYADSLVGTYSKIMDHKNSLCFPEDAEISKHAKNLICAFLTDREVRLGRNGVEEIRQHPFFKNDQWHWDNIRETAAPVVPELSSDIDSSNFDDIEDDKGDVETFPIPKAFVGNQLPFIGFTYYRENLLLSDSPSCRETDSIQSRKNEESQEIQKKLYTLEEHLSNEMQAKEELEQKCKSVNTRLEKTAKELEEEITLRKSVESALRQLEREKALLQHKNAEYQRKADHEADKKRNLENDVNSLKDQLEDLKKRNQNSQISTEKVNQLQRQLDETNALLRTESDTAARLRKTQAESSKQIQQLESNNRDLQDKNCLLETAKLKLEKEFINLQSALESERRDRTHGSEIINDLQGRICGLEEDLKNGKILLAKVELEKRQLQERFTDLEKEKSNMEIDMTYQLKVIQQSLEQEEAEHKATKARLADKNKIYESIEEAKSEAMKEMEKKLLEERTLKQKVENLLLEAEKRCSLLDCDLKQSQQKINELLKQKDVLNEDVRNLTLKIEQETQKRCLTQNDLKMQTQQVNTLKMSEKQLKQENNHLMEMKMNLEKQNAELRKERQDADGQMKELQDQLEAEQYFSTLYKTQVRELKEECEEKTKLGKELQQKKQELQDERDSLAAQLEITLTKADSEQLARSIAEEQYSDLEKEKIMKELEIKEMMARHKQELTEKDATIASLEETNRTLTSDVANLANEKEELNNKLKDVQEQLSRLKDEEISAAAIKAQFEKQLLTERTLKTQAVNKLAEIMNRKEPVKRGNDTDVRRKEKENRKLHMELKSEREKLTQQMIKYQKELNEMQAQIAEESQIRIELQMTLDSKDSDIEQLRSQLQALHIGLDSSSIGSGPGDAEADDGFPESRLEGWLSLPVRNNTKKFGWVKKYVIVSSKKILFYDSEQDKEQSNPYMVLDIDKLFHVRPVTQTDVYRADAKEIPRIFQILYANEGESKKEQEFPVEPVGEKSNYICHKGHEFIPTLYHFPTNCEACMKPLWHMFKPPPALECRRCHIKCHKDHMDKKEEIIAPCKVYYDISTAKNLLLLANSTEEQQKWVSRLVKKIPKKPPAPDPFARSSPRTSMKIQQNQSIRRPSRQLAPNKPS

SMILES: O=C(c1c(F)ccc(NS(=O)(=O)CCCO)c1F)c1c[nH]c2ncc(-c3ccc(Cl)cc3)cc12 [200-17, N-[3-[5-(4-chlorophenyl)-1H-pyrrolo[2,3-b]pyridine-3-carbonyl]-2,4-difluorophenyl]-3-hydroxypropane-1-sulfonamide]
- inhibition at 0.01 µM (MST2; [1]): < 30%
- inhibition at 0.1 µM (MST2; inhibitor concentration 0.1 μM): < 50%
- inhibition at 1 µM (MST2; inhibitor concentration 1 μM): > 50%
- inhibition at 0.01 µM (BLK; [1]): < 30%
- inhibition at 0.1 µM (BLK; inhibitor concentration 0.1 μM): > 50%
- inhibition at 1 µM (BLK; inhibitor concentration 1 μM): > 50%
- inhibition at 0.01 µM (DDR1; [1]): < 30%
- inhibition at 0.1 µM (DDR1; inhibitor concentration 0.1 μM): > 50%
- inhibition at 1 µM (DDR1; inhibitor concentration 1 μM): > 50%
- inhibition at 1 µM (PKD3): < 50%
- inhibition at 1 µM (MAP2K3): > 50%
- inhibition at 0.01 µM (RET(G691S); [1]): < 30%
- inhibition at 0.1 µM (RET(G691S); inhibitor concentration 0.1 μM): < 50%
- inhibition at 1 µM (RET(G691S); inhibitor concentration 1 μM): > 50%
- inhibition at 0.01 µM (DDR2; [1]): < 30%
- inhibition at 0.1 µM (DDR2; inhibitor concentration 0.1 μM): > 50%
- inhibition at 1 µM (DDR2; inhibitor concentration 1 μM): > 50%
- inhibition at 1 µM (MAP2K4): < 50%
- inhibition at 0.01 µM (FYN(isoform b); [1]): < 30%
- inhibition at 0.1 µM (FYN(isoform b); inhibitor concentration 0.1 μM): < 50%
- inhibition at 1 µM (FYN(isoform b); inhibitor concentration 1 μM): > 50%
- inhibition at 1 µM (ROCK2): < 50%
- inhibition at 1 µM (KIT(D816Y)): < 50%
- inhibition at 1 µM (YES(T348I)): > 50%
- inhibition at 1 µM (PKD2): < 50%
- inhibition at 0.01 µM (RET(M918T); [1]): < 30%
- inhibition at 0.1 µM (RET(M918T); inhibitor concentration 0.1 μM): < 50%
- inhibition at 1 µM (RET(M918T); inhibitor concentration 1 μM): > 50%
